Patent US11091462B2, “(Hetero)arylamide compound for inhibiting protein kinase activity” (Shenzhen TargetRx, Inc., priority 2017, dated 2021)
pIC50: −log10 of the molar value. Several values for one entry are separate records, joined by “and”; a condition that tells them apart may be missing. Identical values can stand only once. Like-named read-outs stand apart in the source and are kept apart here.

Tests used:
Ba/F3 parent cells = assay: Cytotoxicity experiment, Ba/F3 parent cells (CellTiter-Glo); type: cell-based; details: Mus musculus, BaF3, 72 h; Ba/F3 parent cells with 8 ng/ml IL-3, 3 days
Experimental: (§1) Example 13: Cytotoxicity Experiment
(§2) The inhibitory effect of the Example compounds on the activity of Ba/F3 parent cell, Ba/F3 Bcr-Abl^T315I cell was examined.
(§3) 1. Preparation of cell plate: Ba/F3 parental cells, Ba/F3 Bcr-Abl^T315I cells were seeded in 96-well plates, and 8 ng/ml IL-3 was added to Ba/F3 parental cells. The cell plates were placed in carbon dioxide culture and incubated overnight.
(§4) 2. Preparation of test compounds: The test compounds were dissolved in DMSO and subjected to a 3.16-fold gradient dilution in triplicate, 9 concentrations were obtained, starting from the concentration of 10 μM.
(§5) 3. Treatment of Cells with compounds: Compounds at various concentrations were transferred to cell plates. The cell plates were incubated in a carbon dioxide incubator for 3 days.
(§6) 4. Detection: CellTiter-Glo4 reagent was added to the cell plates, which were incubated for 30 minutes at room temperature to stabilize the luminescence signal. Readings were performed using a PerkinElmer Envision multi-label analyzer.

[1] = molecular target: T1, Ba/F3 Bcr-Abl^T315I cells (Homo sapiens, UniProt P00519, T315I, cells depend on it); assay: Cytotoxicity experiment, Ba/F3 Bcr-Abl T315I cells (CellTiter-Glo); type: cell-based; details: 3 days, read-out: Ba/F3 Bcr-Abl1^T315I IC50
T1 construct: Ba/F3 Bcr-Abl1^T315I IC50; other: Ba/F3 Bcr-Abl T315I cells, 3 days; fused on or other part: P11274 (Breakpoint cluster region protein)
Experimental: as §1, §2, §3, §4, §5, §6

[2] = Pharmacokinetic experiment in rats; type: in vivo, Sprague-Dawley rats; design: Cl—pred: unit not given here; details: for AUC(0-t) / Vd / Cmax / MRT inf: male, Sprague-Dawley, rat, plasma; for Vd: read-out: Vz—pred; for F: oral 20 mg/kg vs IV 2 mg/kg; for MRT inf: read-out: MRTINF—pred
Experimental: 9 Male Sprague-Dawley rats, 7-8 weeks old, weighted 210 g, divided into 3 groups with 3 rats in each group, were intravenously (2 mg/kg) or orally (20 mg/kg) given a single dose of compound, and differences in pharmacokinetics of the rats were compared.
Rats were fed with a standard diet and water. Fasting began 16 hours before the test. The drugs were dissolved in PEG400 and dimethyl sulfoxide. Blood was collected from the eyelids at a time point of 0.083 hour, 0.25 hour, 0.5 hour, 1 hour, 2 hours, 4 hours, 6 hours, 8 hours, 12 hours, and 24 hours after administration.
Rats were briefly anesthetized after inhalation of ether, and 300 μL of blood samples were collected from the eyelids to test tubes. There was 30 μL of 1% heparin salt solution in the test tube. The tubes were dried overnight at 60° C. before use. After the blood sample was collected at the last time point, rats were anesthetized with ether and sacrificed.
Immediately after the collection, blood samples were sufficiently mixed by gently inverting the tube at least 5 times, and were placed on ice. Blood samples were centrifuged at 5000 rpm for 5 minutes at 4° C. to separate plasma from red blood cells. 100 μL of the plasma was pipetted into a clean plastic centrifuge tube, marking the name of the compound and collecting time. Plasma was stored at −80° C. prior to analysis. The concentration of the compounds disclosed herein in plasma was determined by LC-MS/MS. Pharmacokinetic parameters were calculated based on drug concentrations in plasma of each animal at different time points.

[3] = tested on: BA/F3 (BCR-ABL^T315I) cells; assay: Pharmacodynamic evaluation in BA/F3 (BCR-ABL T315I) subcutaneous tumor model; type: in vivo, NOD/SCID mice; details: 15 mg/kg twice a day
Experimental: Feeding environment: SPF level.
Each NOD/SCID mouse was subcutaneously inoculated with 5×10^6 BA/F3 (BCR-ABL^T315I) cells in the right dorsal area, wherein the cells were resuspended in PBS (0.1 ml/mouse), to establish a subcutaneous tumor model. […] The efficacy was evaluated according to the relative tumor growth inhibition rate (TGI), and the safety evaluation was performed according to the body weight changes and deaths of the animals.
The experimental protocols for animal experiment disclosed herein were reviewed and approved by the CrownBio IACUC committee. During the experiment, the procedures of the animal experiment were carried out according to the requirements of AAALAC. After tumor inoculation, the effects of tumor growth and treatment on normal animal behavior were routinely monitored, including experimental animal activity, feeding and drinking, weight gain or loss, eye, hair and other abnormalities. Abnormal clinical symptoms observed during the experiment were recorded in the raw data. Mice body weight and tumor size were measured and recorded three times per week during the experiment. The mice were weighed before each administration and administered according to the weight thereof.
Relative tumor growth inhibition rate TGI (%):
T/C % is the relative tumor proliferation rate, that is, the percentage of tumor volume or tumor weight of the treatment group and the control group at a certain time point. T and C are the relative tumor volume (RTV) or tumor weight (TW) of the treatment group and the control group at a specific time point, respectively.
All experimental results were expressed as mean±standard error (x±s), and the significant difference of the tumor volume at 12 days after grouping between the control group and each treatment group was evaluated with one-way ANOVA, and significant difference of the tumor volume between the control group and each treatment group or between each treatment group was evaluated using Games-Howell (heterogeneity of variance), p<0.05 was considered to be significant.

[4] = type: in vivo; details: 15 mg/kg twice a day

| Compound | pIC50 (Ba/F3 parent cells) | GI50 [1] [nM] | Vz—pred ([2]; PO 20 mg/kg single dose) [L/kg] | AUC(0-t) ([2]; IV 2 mg/kg single dose) [ng·h/mL] | Vd ([2]; IV 2 mg/kg single dose) [L/kg] | AUC(0-t) ([2]; PO 20 mg/kg single dose) [ng·h/mL] | Cmax ([2]; PO 20 mg/kg single dose) [ng/mL] | F [2] [%] | also measured |
| --- | --- | --- | --- | --- | --- | --- | --- | --- | --- |
| O=C(Nc1ccc(OC(F)(F)Cl)cc1)c1cnc(N2CC[C@@H](O)C2)c(-c2ccnnc2)c1 [Example 3, (R)-6-(3-hydroxypyrrolidin-1-yl)-5-(pyridazine-4-yl)-N-(4-(chlorodifluoromethoxy)phenyl)nicotinamide] | < 6.00 | 500 to 1000 | – | – | – | – | – | – | – |
| O=C(Nc1ccc(OC(F)(F)Cl)cc1)c1cnc(N2CC[C@@H](O)C2)c(-c2cccnn2)c1 [Example 2, (R)-6-(3-hydroxypyrrolidin-1-yl)-5-(pyridazine-3-yl)-N-(4-(chlorodifluoromethoxy)phenyl)nicotinamide] | < 6.00 | 100 to 500 | – | – | – | – | – | – | – |
| O=C(Nc1ccc(OC(F)(F)Cl)cc1)c1cnc(N2CC[C@@H](O)C2)c(-c2nccnn2)c1 [Example 6, (R)-6-(3-hydroxypyrrolidin-1-yl)-5-(1,2,4-triazin-3-yl)-N-(4-(chlorodifluoromethoxy)phenyl)nicotinamide] | < 6.00 | > 1000 | – | – | – | – | – | – | – |
| O=C(Nc1ccc(OC(F)(F)Cl)cc1)c1cnc(N2CC[C@@H](O)C2)c(-c2ccn[nH]2)c1 [ABL-001, (R)—N-(4-(chlorodifluoromethoxy)phenyl)-6-(3-hydroxypyrrolidin-1-yl)-5-(1H-pyrazol-5-yl)nicotinamide, reference compound] | – | – | 5.14 | 6900 | 0.54 | 13700 | 1770 | 19.86 | – |
| O=C(Nc1ccc(OC(F)(F)Cl)cc1)c1cnc(N2CC[C@@H](F)C2)c(-c2cnccn2)c1 [Example 7, (R)-6-(3-fluoropyrrolidin-1-yl)-5-(pyrazin-2-yl)-N-(4-(chlorodifluoromethoxy)phenyl)nicotinamide] | < 6.00 | ≤ 100 | 2.52 | 3740 | 0.79 | 23100 | 2370 | 61.95 | Cl—pred ([2]; IV 2 mg/kg single dose): 0.54; Cl—pred ([2]; PO 20 mg/kg single dose): 0.90; Cmax ([2]; IV 2 mg/kg single dose): 4510 ng/mL; MRT inf ([2]; IV 2 mg/kg single dose): 1.14 h; MRT inf ([2]; PO 20 mg/kg single dose): 5.43 h; Tumor volume (x ± S) ([3]; at day 2 after grouping): 175 ± 17 mm^3; Tumor volume (x ± S) ([3]; at day 5 after grouping): 237 ± 27 mm^3; Tumor volume (x ± S) ([3]; at day 8 after grouping): 432 ± 24 mm^3; Tumor volume (x ± S) ([3]; at day 10 after grouping): 590 ± 51 mm^3; Tumor volume (x ± S) ([3]; at day 12 after grouping): 790 ± 64 mm^3; Tumor volume (x ± S) ([3]; at day 15 after grouping): 1145 mm^3 and 1145 ± 116 mm^3; relative tumor growth inhibition rate TGI ([3]; at day 15 after grouping): 53.1%; Tumor volume (x ± S) ([3]; at day 17 after grouping): 1532 ± 129 mm^3; Tumor volume (x ± S) ([3]; at day 19 after grouping): 1761 ± 212 mm^3; Tumor volume (x ± S) ([3]; at day 22 after grouping): 2216 ± 126 mm^3; Tumor volume (x ± S) ([3]; at the day of grouping): 160 ± 11 mm^3; average body weight of the mice increased by ([4]; at day 22 after grouping): 1.3%; decrease in the body weight of mice during the experiment ([4]; during the experiment): no mouse in the Example 7 15 mg/kg group had a decrease in the body weight |
| Nc1ncc(-c2cc(C(=O)Nc3ccc(OC(F)(F)Cl)cc3)cnc2N2CC[C@@H](O)C2)nn1 [Example 4, (R)-6-(3-hydroxypyrrolidin-1-yl)-5-(3-amino-1,2,4-triazin-6-yl)-N-(4-(chlorodifluoromethoxy)phenyl)nicotinamide] | < 6.00 | 100 to 500 | – | – | – | – | – | – | – |
| O=C(Nc1ccc(OC(F)(F)Cl)cc1)c1cnc(N2CC[C@@H](O)C2)c(-c2cnccn2)c1 [Example 1, (R)-6-(3-hydroxypyrrolidin-1-yl)-5-(pyrazin-2-yl)-N-(4-(chlorodifluoromethoxy)phenyl)nicotinamide] | < 6.00 | ≤ 100 | 1.68 | 5700 | 0.7 | 38000 | 4330 | 66.68 | Cl—pred ([2]; IV 2 mg/kg single dose): 0.35; Cl—pred ([2]; PO 20 mg/kg single dose): 0.54; Cmax ([2]; IV 2 mg/kg single dose): 4820 ng/mL; MRT inf ([2]; IV 2 mg/kg single dose): 1.37 h; MRT inf ([2]; PO 20 mg/kg single dose): 5.43 h |
| O=C(Nc1ccc(OC(F)(F)Cl)cc1)c1cnc(N2CC[C@@H](O)C2)c(-c2cncnn2)c1 [Example 5, (R)-6-(3-hydroxypyrrolidin-1-yl)-5-(1,2,4-triazin-6-yl)-N-(4-(chlorodifluoromethoxy)phenyl)nicotinamide] | < 6.00 | 100 to 500 | – | – | – | – | – | – | – |
